Measured values taken from patent US7994140B2, “Classes of compounds that interact with GPCRs” (Alchemia Limited, priority 2002, dated 2011).

What was measured:
MC4 = target: T1, MC4 (Homo sapiens, UniProt P32245); experiment: GPCR radioligand binding (RLB) assay, melanocortin MC4, [125I]NDP-αMSH
T1 construct: purchased Perkin Elmer BioSignal; host or cells: HEK 293
How it was run: (§1)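 Competition binding against radioligand ([125I]NDP-αMSH for MC4, [125I]SST-14 for SST5) on membranes of HEK 293 cells carrying the human receptor; buffer and incubation time optimized per receptor. Filtration through 0.5% PEI-treated glass fiber, washing, then scintillation counting.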

SST5 = target: T2, SST5 (Homo sapiens, UniProt P35346); experiment: GPCR radioligand binding (RLB) assay, somatostatin SST5, [125I]SST-14; conditions: for SST5 inhibition at 10 micromolar: recombinant human receptor membranes (HEK 293)
T2 construct: purchased Perkin Elmer BioSignal; host or cells: HEK 293
How it was run: as §1

[1] = 10 micromolar, Example Library 4
[2] = 10 micromolar compound, recombinant human receptor membranes (HEK 293)
[3] = 10 micromolar compound, Example Library 8

T1 sequence (P32245 whole entry): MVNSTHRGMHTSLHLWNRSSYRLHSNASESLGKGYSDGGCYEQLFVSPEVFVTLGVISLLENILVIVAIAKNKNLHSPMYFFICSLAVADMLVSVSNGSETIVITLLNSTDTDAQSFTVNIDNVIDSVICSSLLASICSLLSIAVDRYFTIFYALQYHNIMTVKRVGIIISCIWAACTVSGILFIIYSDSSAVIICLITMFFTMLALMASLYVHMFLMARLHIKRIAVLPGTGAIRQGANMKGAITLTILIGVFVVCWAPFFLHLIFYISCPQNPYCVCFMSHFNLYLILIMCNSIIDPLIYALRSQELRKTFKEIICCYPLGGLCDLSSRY
T2 sequence (P35346 whole entry): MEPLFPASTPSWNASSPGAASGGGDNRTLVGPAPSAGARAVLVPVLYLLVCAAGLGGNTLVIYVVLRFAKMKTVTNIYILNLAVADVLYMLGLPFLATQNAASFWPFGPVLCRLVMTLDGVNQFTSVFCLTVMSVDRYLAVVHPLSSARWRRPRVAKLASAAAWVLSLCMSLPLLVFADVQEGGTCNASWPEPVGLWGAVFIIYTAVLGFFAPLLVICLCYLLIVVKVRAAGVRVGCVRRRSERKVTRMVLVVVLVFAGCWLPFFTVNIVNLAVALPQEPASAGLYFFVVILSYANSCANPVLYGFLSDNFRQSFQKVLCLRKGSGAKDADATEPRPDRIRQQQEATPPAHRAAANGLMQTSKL

SMILES: COCC1OC(OCc2ccc3ccccc3c2)C(NC(=O)CCNC(=N)N)C(OCc2ccc(Cl)cc2)C1O (stereo not shown) [Compound 293]
- MC4 inhibition at 10 micromolar (MC4; [1]): + (Indicates inhibition greater than . . . 50%)
- SSTS inhibition at 10 micromolar (SST5; [1]): + (Indicates inhibition greater than . . . 50%)

SMILES: COCC1OC(OCc2ccc3ccccc3c2)C(NC(=O)CCCN)C(OCc2ccc(Cl)cc2)C1O (stereo not shown) [Compound 294]
- MC4 inhibition at 10 micromolar (MC4; [1]): + (Indicates inhibition greater than . . . 50%)
- SSTS inhibition at 10 micromolar (SST5; [1]): + (Indicates inhibition greater than . . . 50%)

SMILES: COCC1OC(OCc2ccc3ccccc3c2)C(NC(=O)CCCNC(=N)N)C(OCc2ccc(Cl)cc2)C1O (stereo not shown) [Compound 295]
- MC4 inhibition at 10 micromolar (MC4; [1]): + (Indicates inhibition greater than . . . 50%)
- SSTS inhibition at 10 micromolar (SST5; [1]): + (Indicates inhibition greater than . . . 50%)

SMILES: COCC1OC(OCc2ccc3ccccc3c2)C(NC(=O)CNC(=N)N)C(OCc2ccc(-c3ccccc3)cc2)C1O (stereo not shown) [Compound 297]
- MC4 inhibition at 10 micromolar (MC4; [1]): + (Indicates inhibition greater than . . . 50%)
- SSTS inhibition at 10 micromolar (SST5; [1]): + (Indicates inhibition greater than . . . 50%)

SMILES: COCC1OC(OCc2ccc3ccccc3c2)C(NC(=O)CN)C(OCc2ccc(-c3ccccc3)cc2)C1O (stereo not shown) [Compound 298]
- MC4 inhibition at 10 micromolar (MC4; [1]): + (Indicates inhibition greater than . . . 50%)
- SSTS inhibition at 10 micromolar (SST5; [1]): + (Indicates inhibition greater than . . . 50%)

SMILES: COCC1OC(OCc2ccc3ccccc3c2)C(NC(=O)CCNC(=N)N)C(OCc2ccc(-c3ccccc3)cc2)C1O (stereo not shown) [Compound 299]
- MC4 inhibition at 10 micromolar (MC4; [1]): + (Indicates inhibition greater than . . . 50%)
- SSTS inhibition at 10 micromolar (SST5; [1]): + (Indicates inhibition greater than . . . 50%)

SMILES: COCC1OC(OCc2ccc3ccccc3c2)C(NC(=O)CCCN)C(OCc2ccc(-c3ccccc3)cc2)C1O (stereo not shown) [Compound 300]
- MC4 inhibition at 10 micromolar (MC4; [1]): + (Indicates inhibition greater than . . . 50%)
- SSTS inhibition at 10 micromolar (SST5; [1]): + (Indicates inhibition greater than . . . 50%)

SMILES: COCC1OC(OCc2ccc3ccccc3c2)C(NC(=O)CCCNC(=N)N)C(OCc2ccc(-c3ccccc3)cc2)C1O (stereo not shown) [Compound 301]
- MC4 inhibition at 10 micromolar (MC4; [1]): + (Indicates inhibition greater than . . . 50%)
- SSTS inhibition at 10 micromolar (SST5; [1]): + (Indicates inhibition greater than . . . 50%)

SMILES: COCC1OC(OCc2ccc3ccccc3c2)C(NC(=O)CN)C(OCc2ccc3ccccc3c2)C1O (stereo not shown) [Compound 302]
- MC4 inhibition at 10 micromolar (MC4; [1]): + (Indicates inhibition greater than . . . 50%)
- SSTS inhibition at 10 micromolar (SST5; [1]): + (Indicates inhibition greater than . . . 50%)

SMILES: COCC1OC(OCc2ccc3ccccc3c2)C(NC(=O)CNC(=N)N)C(OCc2ccc3ccccc3c2)C1O (stereo not shown) [Compound 303]
- MC4 inhibition at 10 micromolar (MC4; [1]): + (Indicates inhibition greater than . . . 50%)
- SSTS inhibition at 10 micromolar (SST5; [1]): + (Indicates inhibition greater than . . . 50%)

SMILES: COCC1OC(OCc2ccc3ccccc3c2)C(NC(=O)CCNC(=N)N)C(OCc2ccc3ccccc3c2)C1O (stereo not shown) [Compound 305]
- MC4 inhibition at 10 micromolar (MC4; [1]): + (Indicates inhibition greater than . . . 50%)
- SSTS inhibition at 10 micromolar (SST5; [1]): + (Indicates inhibition greater than . . . 50%)

SMILES: COCC1OC(OCc2ccc3ccccc3c2)C(NC(=O)CCCNC(=N)N)C(OCc2ccc3ccccc3c2)C1O (stereo not shown) [Compound 307]
- MC4 inhibition at 10 micromolar (MC4; [1]): + (Indicates inhibition greater than . . . 50%)
- SSTS inhibition at 10 micromolar (SST5; [1]): + (Indicates inhibition greater than . . . 50%)

SMILES: CSC1OC(COC(=O)CCC2CNc3ccccc32)C(O)C(OCc2cccc(N)c2)C1NCc1ccccc1 (stereo not shown) [Compound 311]
- MC4 inhibition at 10 micromolar (MC4; [2]): + (Indicates inhibition greater than . . . 50%)
- SST5 inhibition at 10 micromolar (SST5; 10 micromolar compound): + (Indicates inhibition greater than . . . 50%)

SMILES: CSC1OC(COC(=O)Cc2ccccc2)C(O)C(OCc2cccc(N)c2)C1NCc1ccc(Cl)cc1 (stereo not shown) [Compound 313]
- MC4 inhibition at 10 micromolar (MC4; [2]): + (Indicates inhibition greater than . . . 50%)
- SST5 inhibition at 10 micromolar (SST5; 10 micromolar compound): + (Indicates inhibition greater than . . . 50%)

SMILES: CSC1O[C@H](COCc2ccccc2)[C@@H](O)[C@H](OCc2cccc(N)c2)[C@H]1NC(=O)CCC1CNc2ccccc21 (stereo partly shown) [Compound 320]
- MC4 inhibition at 10 micromolar (MC4; [2]): + (Indicates inhibition greater than . . . 50%)
- SST5 inhibition at 10 micromolar (SST5; 10 micromolar compound): + (Indicates inhibition greater than . . . 50%)

SMILES: CSC1O[C@H](COCc2ccc(Cl)cc2)[C@@H](O)[C@H](OCc2cccc(N)c2)[C@H]1NC(=O)Cc1c[nH]c2ccccc12 (stereo partly shown) [Compound 324]
- MC4 inhibition at 10 micromolar (MC4; [2]): + (Indicates inhibition greater than . . . 50%)
- SST5 inhibition at 10 micromolar (SST5; 10 micromolar compound): + (Indicates inhibition greater than . . . 50%)

SMILES: CSC1OC(COCc2cccc(N)c2)C(O)C(OCc2ccccc2)C1NC(=O)Cc1ccccc1 (stereo not shown) [Compound 327]
- MC4 inhibition at 10 micromolar (MC4; [2]): + (Indicates inhibition greater than . . . 50%)
- SST5 inhibition at 10 micromolar (SST5; 10 micromolar compound): + (Indicates inhibition greater than . . . 50%)

SMILES: CSC1OC(COCc2cccc(N)c2)C(O)C(OCc2ccccc2)C1NC(=O)CCC1CNc2ccccc21 (stereo not shown) [Compound 330]
- MC4 inhibition at 10 micromolar (MC4; [2]): + (Indicates inhibition greater than . . . 50%)
- SST5 inhibition at 10 micromolar (SST5; 10 micromolar compound): + (Indicates inhibition greater than . . . 50%)

SMILES: CSC1OC(COCc2cccc(N)c2)C(O)C(OCc2ccc(Cl)cc2)C1NC(=O)c1ccccc1 (stereo not shown) [Compound 331]
- MC4 inhibition at 10 micromolar (MC4; [2]): + (Indicates inhibition greater than . . . 50%)
- SST5 inhibition at 10 micromolar (SST5; 10 micromolar compound): + (Indicates inhibition greater than . . . 50%)

SMILES: CSC1O[C@H](COCc2cccc(N)c2)[C@@H](O)[C@H](OCc2ccccc2)[C@H]1NC(=O)Cc1c[nH]c2ccccc12 (stereo partly shown) [Compound 336]
- MC4 inhibition at 10 micromolar (MC4; [2]): + (Indicates inhibition greater than . . . 50%)
- SSTS inhibition at 10 micromolar (SST5; [3]): + (Indicates inhibition greater than . . . 50%)

SMILES: CSC1O[C@H](COCc2cccc(N)c2)[C@@H](O)[C@H](OCc2ccc(Cl)cc2)[C@H]1NC(=O)c1ccccc1 (stereo partly shown) [Compound 338]
- MC4 inhibition at 10 micromolar (MC4; [2]): + (Indicates inhibition greater than . . . 50%)
- SSTS inhibition at 10 micromolar (SST5; [3]): + (Indicates inhibition greater than . . . 50%)

SMILES: CSC1O[C@H](COCc2cccc(N)c2)[C@@H](O)[C@H](OCc2ccc(Cl)cc2)[C@H]1NC(=O)Cc1ccccc1 (stereo partly shown) [Compound 339]
- MC4 inhibition at 10 micromolar (MC4; [2]): + (Indicates inhibition greater than . . . 50%)
- SSTS inhibition at 10 micromolar (SST5; [3]): + (Indicates inhibition greater than . . . 50%)

SMILES: CSC1O[C@H](COCc2cccc(N)c2)[C@@H](O)[C@H](OCc2ccc(Cl)cc2)[C@H]1NC(=O)Cc1c[nH]c2ccccc12 (stereo partly shown) [Compound 341]
- MC4 inhibition at 10 micromolar (MC4; [2]): + (Indicates inhibition greater than . . . 50%)
- SSTS inhibition at 10 micromolar (SST5; [3]): + (Indicates inhibition greater than . . . 50%)
